Experimental findings from US11673891B2, “Imidazopyrimidine compounds and uses thereof” (Dana-Farber Cancer Institute, Inc., priority 2017, dated 2023) are described below.

One test has as its system PBMCs. Description: TNF AlphaLISA screen on primary human PBMCs. It counts as cell-based. The conditions noted are these: robust Z score >2 in both duplicates and at least 2 of 3 donors. As for the experimental part:
TNF AlphaLISA screen was comprised of three parts: 1) human peripheral blood collection and PBMC isolation—human adult peripheral blood was collected with written consent. PBMCs were isolated from the blood using Ficoll density gradient. PBMCs were stored at 50 million cells per vial in 1 ml RPMI containing 20% autologous plasma and 10% DMSO at −80° C. until use; 2) TNFαLISA Assay—On Day 1, PBMCs were thawed in 37° C. water bath for 3 min and washed twice with PBS. Trypan blue viable cell count was obtained and cells were resuspended to viable 6.67×10^5 cells/ml in DMEM with 10% autologous plasma. Cells were dispensed in 30 μl per well in Corning 2712 black 384-well cell culture plates (final concentration was 20,000 cells/well). Controls were added to cells manually and the test compounds were added by robotic pin transfer. Plates were then incubated at 37° C./5% CO2 humidity-controlled incubator for 18 hours. On Day 2 of the assay, plates were centrifuged and 2 μl supernatants were collected into Perkin Elmer Alpha plates. Perkin Elmer Human TNFα kits (cat #AL208F) were used to detect the presence of TNFα in supernatants.
TNFαLISA Assay. Human adult peripheral blood was collected according to approved protocols. […] Viability was assessed by trypan blue staining and cells were then resuspended to 6.67×10^5 viable cells/mL in DMEM with 10% autologous plasma. […]
For orientation: Bead proximity is the source of the signal in Alpha formats.

In test [1] the test system is Human adult and elderly PBMCs. The experiment in a line: Adult and elderly PBMCs stimulated with confirmed hit compounds, TNF and IL-1β by ELISA. The class given is cell-based. The conditions noted are these: 18 hours, N=5. As for the experimental part:
(FIG. 2A) Human adult (top) and elderly (bottom) PBMCs stimulated for 18 hours with the TLR7/8 agonist R848 and 24 confirmed hit compounds from TNF AlphaLISA screen. TNF (left panels) and IL-1β (right panels) were assessed in cell-free supernatants by ELISA. Data are shown as median and interquartile range of N=5.
ELISAs and Multiplex-Analyte Assays. Supernatants derived from human PBMCs and DC stimulations were assayed by ELISA for TNF (ThermoFisher Scientific; Waltham, Mass., USA). Cytokine and chemokine expression profiles (e.g., IFNγ, IL-9, IL-10, IL-12 (p70), IL-13, IL-1β, IL-23, IL-27, IL-28A, IL-33, IL-6, MIP-3α/CCL20, and TNF) in cell culture supernatants were measured using a customized Milliplex® Human Th17 Magnetic Bead Panel according to the manufacturer's instructions (Millipore, Chicago, Ill., USA). Assays were read and analyzed on the Luminex® 100/200™ System and xPOTENT® software (Luminex, Austin, Tex.). A minimum threshold was set at the minimum detectable concentration for each individual assay, defined as three standard deviations above the mean background.
Background: In an ELISA, binding on a coated surface is turned into a signal by an enzyme label.

Structures are written as SMILES.

With `CCC(C(=O)Nc1cc(-c2cn3cccnc3n2)ccc1C)c1ccccc1` (centres unmarked) [Compound 37], the “Hit in PBMC TNFαLISA screen (in words)” value in the test with PBMCs was “identified in the PBMC TNFαLISA screen”. In addition, in test [1], the “TNF and IL-1β induction from adult and elderly PBMCs (in words)” value was “induce TNF and IL-1β from adult and elderly PBMCs”.
